Patent US12024502B2, “Biased adrenergic agonists” (University of South Florida, priority 2021, dated 2024)

Tests used:
[1] = test system: human airway smooth muscle (HASM) cells; assay: Magnetic twisting cytometry (MTC) of HASM cells: relaxation and desensitization; type: cell-based; details: 1.0 mM ALB or 100 mM C1-S as printed, then 10 μM ISO
Experimental: CHW cells were transfected to stably express the human β2AR under G418 selection and maintained in monolayers as previously described. Transient transfections of HEK-293T cells with constructs to express human β-arrestin2-myc, human β-arrestin2-GFP, human β2AR and β2AR-GFP, were performed using Lipofectamine 2000 (Invitrogen), and studied 48 hrs later. CHO cells stably expressing a modified β2AR and a modified β-arrestin2 for the ECA were purchased from DiscoverX. In some experiments, these cells were transiently transfected with 5 μg GRK2 cDNA. Primary HASM cells were derived from donor lungs obtained from the National Disease Exchange Registry and maintained as monolayers, and utilized between passages 3 and 6 for the physiological studies. […]
MTC was used to measure dynamic changes in the cytoskeletal stiffness as a surrogate for agonist-induced single-cell relaxation. […] Forced bead motions were detected optically with a spatial resolution of ˜5 nm, and their changes monitored, in real time, in response to b-agonist (HASM cell relaxation). […] The response to 10 μM isoproterenol (final concentration) added to the media was then determined every 1.3 sec. […] The greatest relaxation change from baseline observed at any point over the time course was utilized to quantify the maximal HASM response to isoproterenol.

ERK1/2 = ERK1/2 activation immunoblot in the presence of PKA inhibitor H89; type: cell-based, human; details: β2AR transfected HEK-293 cells; PKA inhibitor H89 present; vs vehicle control

Compound	desensitization of β2AR-mediated HASM cell relaxation response to ISO ([1]; 30 min pretreatment)	desensitization of β2AR-mediated HASM cell relaxation response to ISO ([1]; 4 hour pretreatment)	activation of ERK1/2 (ERK1/2)
CC(C)(C)NCC(O)c1ccc(O)c(CO)c1 (stereo not shown) [ALB, albuterol]	caused desensitization	caused desensitization	activation of ERK1/2
CC(C)NCC(O)c1ccc(O)c(O)c1 (stereo not shown) [ISO, isoproterenol]			activation of ERK1/2
